Measured values as given in patent US20150031102A1, “METHODS AND COMPOSITIONS FOR ENHANCED PRODUCTION OF BUTANOL BY CLOSTRIDIA” (Butrolix LLC, priority 2012, published 2015).
Where “and” joins values, the source holds several entries; their conditions need not be identical. Identical values can stand only once.

Tested on: C. acetobutylicum ATCC 824
Assay: Sequential batch cultures of C. acetobutylicum ATCC 824 grown at 30° C. in YEPG (growth OD600, final pH, ceric ion reactive compounds)
Format: cell-based, Clostridium acetobutylicum
Conditions: for Final pH / Optical density at 600 nm / Optical density of ceric ion reactive compounds measured at 500 nm: 96 h culture
Method: Clostridium acetobutylicum ATCC 824 and C. beijerinckii NCIMB 8052 are available from several commercial microbial culture collections including the American Type Culture Collection (ATCC), Manassas, Va., USA. The strain grown at 30 C or 37 C in YE broth, which contained, per liter: 5.0 g yeast extract, 2.5 g casamino acids, 1.0 g L-asparagine, 0.5 g cysteine·HCl, 56 mg K2HPO4, 56 mg KH2PO4, 82 mg anhydrous MgSO4, 8 mg FeSO4.H2O, 6 mg MnSO4.H2O and 10 g glucose. Alternatively, strains were grown in YEPG broth, which was identical to YE expect that K2HPO4 and KH2PO4 were increased to 145 mg/L each and glucose was increased to 60 g/L. The pH of the media was adjusted to 7.2 using 45% KOH prior to sterilization by autoclaving. Media were solidified by addition of 1.5% Bacteriological Agar, Acumedia Manufacturers, Inc., Lansing, Mich. All cultures were grown in anaerobic conditions using the AnaeroPack System, Mitsubishi Gas Chemical Co., Inc., Japan, and GasPak EZ Gas Generating Sachets, Becton, Dickinson and Co., Sparks, Md. Spore stocks were kept at room temperature on agar-solidified media and were activated by suspending spores in 0.5 mL to 1.0 mL of medium followed by heating for 10 min at 80 C before inoculation into growth medium.
Growth of bacterial cultures was measured spectrophotometrically using optical density at 600 nm and pH of cell-free culture supernatants was measured using a hand-held Shindengen ISFET pH Meter KS501, Shendengen Electric Manufacturing Co., Ltd., Bannockburn, Ill.
Total alcohols in cell-free culture supernatants were measured using a modification of a colorimetric method based on ceric ammonium nitrate (Reid and Truelove, 1952). The ceric ion reagent was prepared by adding 1.3 mL of concentrated nitric acid to 40 mL of distilled water, then 10.96 g of ceric ammonium nitrate was dissolved in the dilute nitric acid solution and the solution was brought to a final volume of 50 mL. For the assay, […] of butanol standard or culture supernatant was mixed with […] distilled water in a disposable plastic cuvette followed by addition of […] of the ceric ion reagent. The sample was mixed by inverting the cuvette six times then exactly two minutes later the optical density at 500 nm wavelength was measured. The concentration of total alcohols was determined by comparison with a standard curve prepared by using butanol diluted in distilled water.
Spores of C. acetobutylicum ATCC 824 were germinated and grown overnight at 30 C under anaerobic conditions in YEPG medium. After about 24 h of growth, […] of the culture was transferred (transfer 1) to each of four flasks that contained 10 mL of YEPG and either had no treatment or were treated with peptide SEQ ID NO: 143 (see Table 8 and FIG. 1) at 1 nM, 10 nM or 50 nM. Thereafter, […] of each culture was transferred, at the same time, every 24-48 h to 10 mL of fresh YEPG that contained the same peptide treatment or no treatment. Each culture was stopped after 96 hours of incubation and optical density, pH and ceric ion reactive chemicals were measured. Sequential batch culturing was continued through 5 transfers at which point the untreated culture and those treated with 1 nM and 10 nM of peptide SEQ ID NO: 143 had stopped growing (Table 9). […] In addition, treatment with 1 nM of peptide SEQ ID NO: 143 appeared to stop growth at the first transfer, but growth was restored in the second and third transfers.

SYPGWSW [peptide SEQ ID NO: 143]
Extension of growth during sequential batch cultures (1 nM, 30 °C, untreated culture stopped earlier): growth through the third transfer | Final pH (1 nM, transfer 1, 30 °C): 6.0 | Optical density at 600 nm (1 nM, transfer 1, 30 °C): 0.005 | Optical density of ceric ion reactive compounds measured at 500 nm (1 nM, transfer 1, 30 °C): 0.048 | Final pH (1 nM, transfer 2, 30 °C): 4.4 | Optical density at 600 nm (1 nM, transfer 2, 30 °C): 2.274 | Optical density of ceric ion reactive compounds measured at 500 nm (1 nM, transfer 2, 30 °C): 0.119 | Final pH (1 nM, transfer 3, 30 °C): 4.4 | Optical density at 600 nm (1 nM, transfer 3, 30 °C): 2.165 | Optical density of ceric ion reactive compounds measured at 500 nm (1 nM, transfer 3, 30 °C): 0.167 | Final pH (1 nM, transfer 4, 30 °C): 6.0 | Optical density at 600 nm (1 nM, transfer 4, 30 °C): 0.044 | Optical density of ceric ion reactive compounds measured at 500 nm (1 nM, transfer 4, 30 °C): 0.031 | Final pH (1 nM, transfer 5, 30 °C): 6.0 | Optical density at 600 nm (1 nM, transfer 5, 30 °C): 0.004 | Optical density of ceric ion reactive compounds measured at 500 nm (1 nM, transfer 5, 30 °C): 0.040 | Extension of growth during sequential batch cultures (10 nM, 30 °C): growth through the fourth transfer | Final pH (10 nM, transfer 1, 30 °C): 4.4 | Optical density at 600 nm (10 nM, transfer 1, 30 °C): 2.001 | Optical density of ceric ion reactive compounds measured at 500 nm (10 nM, transfer 1, 30 °C): 0.175 | Final pH (10 nM, transfer 2, 30 °C): 4.4 | Optical density at 600 nm (10 nM, transfer 2, 30 °C): 2.245 | Optical density of ceric ion reactive compounds measured at 500 nm (10 nM, transfer 2, 30 °C): 0.184 | Final pH (10 nM, transfer 3, 30 °C): 4.5 | Optical density at 600 nm (10 nM, transfer 3, 30 °C): 2.379 | Optical density of ceric ion reactive compounds measured at 500 nm (10 nM, transfer 3, 30 °C): 0.187 | Final pH (10 nM, transfer 4, 30 °C): 4.5 | Optical density at 600 nm (10 nM, transfer 4, 30 °C): 2.266 | Optical density of ceric ion reactive compounds measured at 500 nm (10 nM, transfer 4, 30 °C): 0.192 | Final pH (10 nM, transfer 5, 30 °C): 5.9 and 6.0 | Optical density at 600 nm (10 nM, transfer 5, 30 °C): 0.028 | Optical density of ceric ion reactive compounds measured at 500 nm (10 nM, transfer 5, 30 °C): 0.043 | Extension of growth during sequential batch cultures (50 nM, 30 °C): growth through the fifth transfer | Final pH (50 nM, transfer 1, 30 °C): 4.4 | Optical density at 600 nm (50 nM, transfer 1, 30 °C): 1.879 | Optical density of ceric ion reactive compounds measured at 500 nm (50 nM, transfer 1, 30 °C): 0.159 | Final pH (50 nM, transfer 2, 30 °C): 4.6 | Optical density at 600 nm (50 nM, transfer 2, 30 °C): 2.089 | Optical density of ceric ion reactive compounds measured at 500 nm (50 nM, transfer 2, 30 °C): 0.189 | Final pH (50 nM, transfer 3, 30 °C): 4.5 | Optical density at 600 nm (50 nM, transfer 3, 30 °C): 2.313 | Optical density of ceric ion reactive compounds measured at 500 nm (50 nM, transfer 3, 30 °C): 0.183 | Final pH (50 nM, transfer 4, 30 °C): 4.4 | Optical density at 600 nm (50 nM, transfer 4, 30 °C): 2.187 | Optical density of ceric ion reactive compounds measured at 500 nm (50 nM, transfer 4, 30 °C): 0.187 | Final pH (50 nM, transfer 5, 30 °C): 4.3 | Optical density at 600 nm (50 nM, transfer 5, 30 °C): 2.173 | Optical density of ceric ion reactive compounds measured at 500 nm (50 nM, transfer 5, 30 °C): 0.174 | Culture degeneration in terms of number of sequential transfers and production of total alcohols (30 °C): prevent culture degeneration | Number of additional sequential transfers versus a culture without added peptide (30 °C): at least four more times | Expected extension of time in continuous culture (extrapolated from sequential batch transfers, dilution rate of 0.05/hour): about five-fold | Expected time in continuous culture (extrapolated from sequential batch transfers, dilution rate of 0.05/hour, from about 140 hours without peptide): about 700 hours
